Columns and labels:
axonal outgrowth = settings: models of nerve injury; earlier work of the Applicant (Borthwick et al., 2016); cited from earlier work
rats subjected to L5 SNL [1] = test: Standard model for neuropathic pain (L5 SNL), behavioural studies overall; format: in vivo; settings: rat L5 SNL; treated for 4 weeks, 3 mg/kg po every other day; versus placebo
Source text: (§1) Adult male Sprague-Dawley rats (150-200 g) were housed under natural light: dark cycles and provided water and food ad lib. They were habituated to the testing paradigms for 3-5 days before data collection. All protocols were approved by the Animal Care and Use Committee of Kings College London and UK Home Office.
(§2) Animals were studied using the standard model for neuropathic pain (lumbar 5 spinal nerve ligation, L5 SNL; see, e.g., Kim et al., 1992). This is the most widely used model in neuropathic pain studies because of its high reproducibility of spontaneous and evoked pain (hyperalgesia, allodynia) and the absence of autotomy (see, e.g., Barrot, 2012; Huang et al., 2016).
(§3) Adult rats received a partial nerve ligation of the left sciatic nerve (see, e.g., Seltzer et al., 1990) under isoflurane (Abbott Animal Health) inhalation anesthesia. A small incision was made midway up the left thigh to expose the sciatic nerve. The nerve was carefully cleared of surrounding connective tissues at a site near the trochanter just distal to the point at which the posterior biceps semitendinosus nerve branches off the common sciatic nerve. […]
(§4) Pain thresholds were measured according to the methods described below, baseline at 1 day prior to surgery, and at 1, 6, 9, 16, 23, and 28 days after surgery.

[2] = tested on: brain-derived neurotrophic factor (BDNF); test: Immunocytochemistry of BDNF in spinal cord after nerve injury; format: in vivo; settings: rat; 14 days after injury; 3 mg/kg po every other day; versus placebo; FIG. 7
Method: (§5) Two groups of 11 rats were studied. In each group, the rats received partial nerve ligation of the left sciatic nerve (L5 SNL), as described above. In one group, the rats were treated with test compound; in the other group, the rats were treated with placebo. In each group, 8 animals were used for behavioral studies (for 28 days following surgery), as described below. In each group, 3 animals were used for tissue analysis (at 14 days following surgery), as described below.
(§6) Rats were treated with treatment solution or a placebo, orally, starting on the day after surgery and subsequently every other day for 4 weeks.
For treated animals, treatment solution was administered orally (po), by oral gavage, to give a dose of 3 mg/kg. […]
Multichannel fluorescence (DAPI-FITC-Texas Red filter set) images were captured using a Zeiss LSM 700 laser-scanning confocal microscope. […] Axiovision software was used to collect information on pixel immunoreactivity used for quantitative purposes. […]
FIG. 7 is a bar graph showing the BDNF level (arbitray units) in the dorsal horn ipsilateral to peripheral nerve injury for (a) rats treated with placebo and (b) rats treated with BOBA-001. Five serial sections per injured cord analysed, from 3 animals per group (n=3). […]

[3] = tested on: tumour necrosis factor receptor 1 (TNFR1); test: RT-qPCR analysis of TNFR1 expression in spinal cord after nerve injury; format: in vivo; settings: rat; 14 days after injury; 3 mg/kg po every other day; versus placebo; FIG. 6
Method: as §5, §6
(§7) For treated animals, treatment solution was administered orally (po), by oral gavage, to give a dose of 3 mg/kg.
(§8) Fourteen days after injury, three rats from each group were sacrificed. […] Total RNA was isolated with the Qiagen RNeasy® Mini kit and reverse transcribed with a QuantiTect® Reverse Transcription kit (Qiagen). Levels of tumour necrosis factor α (TNFα) and tumour necrosis factor receptor 1 (TNFR1) expression were quantitated in triplicate, relative to glyceraldehyde 3-phosphate dehydrogenase (GAPDH) and triplicate non-template controls for each gene, by RT-qPCR analysis on a LightCycler® 480 instrument with LightCycler® SYBR® Green 1 Master reagent (Roche). […]

rats subjected to L5 SNL [4] = test: Pain threshold, Randall-Selitto test (paw pressure threshold); format: in vivo; settings: rat L5 SNL; 3 mg/kg po every other day for 4 weeks; versus placebo; FIG. 4
Source text: as §1, §2
(§9) Adult rats received a partial nerve ligation of the left sciatic nerve (see, e.g., Seltzer et al., 1990) under isoflurane (Abbott Animal Health) inhalation anesthesia. A small incision was made midway up the left thigh to expose the sciatic nerve. […]
as §4
Mechanical nociceptive thresholds were evaluated using an Analgesy-Meter (Ugo Basile, Comerio, Italy) (see, e.g., Raghavendra et al., 2003). […] The pressure required to elicit paw withdrawal, the paw pressure threshold, in grams, was determined. […]

rats subjected to L5 SNL [5] = test: Pain threshold, thermal hyperalgesia, cold plate; format: in vivo; settings: rat L5 SNL; 3 mg/kg po every other day for 4 weeks; plate at 4 °C; versus placebo; FIG. 3
Source text: as §1, §2, §9, §4
Withdrawal of the hind paw in response to painful cold stimulation was assessed using an Incremental Hot/Cold Plate (IITC Life Sciences) set at 4±0.1° C. […] The latency to withdraw the paw was measured to the nearest 0.01 seconds. […]

rats subjected to L5 SNL [6] = test: Pain threshold, thermal hyperalgesia, hot plate (radiant heat paw withdrawal latency); format: in vivo; settings: rat L5 SNL; 3 mg/kg po every other day for 4 weeks; versus placebo; FIG. 2
Source text: as §1, §2, §3, §4
Thermal hyperalgesia was assessed using a modified method of Hargreaves et al., 1988. […]

[7] = tested on: tumour necrosis factor α (TNFα); test: RT-qPCR analysis of TNFα expression in spinal cord after nerve injury; format: in vivo; settings: rat; 14 days after injury; 3 mg/kg po every other day; versus placebo; FIG. 5
Method: as §5, §6, §7, §8

rats subjected to L5 SNL [8] = test: Pain threshold, mechanical allodynia (von Frey hairs) after nerve ligation; format: in vivo; settings: rat L5 SNL; 3 mg/kg po every other day for 4 weeks; versus placebo; FIG. 1
Source text: as §1, §2, §9, §4
Static mechanical withdrawal thresholds were assessed by applying von Frey hairs (Touch Test, Stoelting, Ill., USA) to the plantar surface of the hind paw. […] A positive response was recorded when a 40% withdrawal response occurred over 5 applications. […]

Cc1ccc(C)c2oc(-c3nc(-c4ccc(C(=O)O)cc4)no3)cc12 [BOBA-001, 4-(5-(4,7-Dimethylbenzofuran-2-yl)-1,2,4-oxadiazol-3-yl)benzoic acid]
axonal outgrowth (axonal outgrowth): causes axonal outgrowth | amelioration of pain (rats subjected to L5 SNL [1]): significant amelioration of pain | BDNF level in the dorsal horn ipsilateral to peripheral nerve injury [2]: significantly down-regulated | TNFR1: GAPDH expression ratio in the dorsal horn ipsilateral to peripheral nerve injury [3]: significantly down-regulated | Randall Sellito paw withdrawal threshold (mechanical threshold) (rats subjected to L5 SNL [4]): significant improvement | cold plate paw withdrawal (thermal threshold) (rats subjected to L5 SNL [5]): significant improvement | hot plate paw withdrawal (thermal threshold) (rats subjected to L5 SNL [6]): significant improvement | TNFα: GAPDH expression ratio in the dorsal horn ipsilateral to peripheral nerve injury [7]: significantly down-regulated | mechanical paw withdrawal threshold (von Frey) (rats subjected to L5 SNL [8]): significant improvement
